# Measurements from patent US10034886B2, “GLP-1 receptor modulators” (Celgene International II SÀRL, priority 2014, dated 2018).
# pEC50: −log10 of the molar value.
# Target: T1, GLP-1R (Homo sapiens, UniProt P43220)
# T1 construct: host or cells: GLP-1R CRE-bla CHO-K1 cells
# Assay: EC20 GLP-1(9-36) PAM cAMP assay: dose response of compound in the presence of fixed concentration of GLP-1(9-36)
# Assay type: cell-based
# Settings: GLP-1R CRE-bla CHO-K1 cells, compound dose response with fixed concentration of GLP-1(9-36), read-out: EC20 GLP-1(9-36) PAM EC50
# Summary of the method: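 Positive allosteric modulation read as cAMP accumulation: compound titrations (12 points) combined with an EC20 level of GLP-1(9-36) on CHO-K1 GLP-1R CRE-bla cells, IBMX present, 30 min, 37 °C, pH 7.4 buffer. Luminescence converted to cAMP via standards; non-linear fit gave EC50 and Emax.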
# T1 sequence (P43220 24-463): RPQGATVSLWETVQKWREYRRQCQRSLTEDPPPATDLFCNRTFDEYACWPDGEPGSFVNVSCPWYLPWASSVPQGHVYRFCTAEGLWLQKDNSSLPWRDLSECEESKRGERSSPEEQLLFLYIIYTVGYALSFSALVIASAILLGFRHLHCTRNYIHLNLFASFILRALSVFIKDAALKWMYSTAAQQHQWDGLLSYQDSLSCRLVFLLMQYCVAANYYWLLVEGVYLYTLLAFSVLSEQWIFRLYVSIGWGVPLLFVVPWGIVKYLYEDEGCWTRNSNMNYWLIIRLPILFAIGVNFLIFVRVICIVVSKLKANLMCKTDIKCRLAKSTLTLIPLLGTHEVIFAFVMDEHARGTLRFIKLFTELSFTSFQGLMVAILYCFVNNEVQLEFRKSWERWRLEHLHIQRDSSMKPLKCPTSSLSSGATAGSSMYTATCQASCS
# T1 sequence (P01275 100-127 partner limits assumed): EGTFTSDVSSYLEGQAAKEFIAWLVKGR
row,pEC50,Compound
1,5.60 to 6.10,C[C@@H](NC(=O)[C@H](Cc1ccc(-c2ncc(/C=C/c3ccc(Cl)cc3)cn2)cc1)NC(=O)c1ccc(C(C)(C)C)s1)C(=O)O [Compound 1250]
2,5.00 to 5.30,C[C@@H](NC(=O)[C@H](Cc1ccc(-c2ncc(/C=C/c3cccc(C(F)(F)F)c3)cn2)cc1)NC(=O)c1ccc(C(C)(C)C)s1)C(=O)O [Compound 1251]
3,5.60 to 6.10,C[C@@H](NC(=O)[C@H](Cc1ccc(-c2ncc(/C=C/c3ccc(C(F)(F)F)cc3)cn2)cc1)NC(=O)c1ccc(C(C)(C)C)s1)C(=O)O [Compound 1252]
4,> 6.10,C[C@@H](NC(=O)[C@H](Cc1ccc(-c2ncc(/C=C/CCCCc3ccccc3)cn2)cc1)NC(=O)c1ccc(C(C)(C)C)s1)C(=O)O [Compound 1253]
5,5.60 to 6.10,Cc1cccc(/C=C/c2cnc(-c3ccc(C[C@H](NC(=O)c4ccc(C(C)(C)C)s4)C(=O)N[C@H](C)C(=O)O)cc3)nc2)c1 [Compound 1254]
6,5.30 to 5.60,C[C@@H](NC(=O)[C@H](Cc1ccc(-c2ncc(/C=C/c3ccc(F)cc3F)cn2)cc1)NC(=O)c1ccc(C(C)(C)C)s1)C(=O)O [Compound 1255]
7,5.00 to 5.30,C[C@@H](NC(=O)[C@H](Cc1ccc(-c2ncc(/C=C/c3cc(F)cc(F)c3)cn2)cc1)NC(=O)c1ccc(C(C)(C)C)s1)C(=O)O [Compound 1256]
8,5.30 to 5.60,C[C@@H](NC(=O)[C@H](Cc1ccc(-c2ncc(/C=C/c3ccsc3)cn2)cc1)NC(=O)c1ccc(C(C)(C)C)s1)C(=O)O [Compound 1257]
9,5.60 to 6.10,CCOc1ccc(/C=C/c2cnc(-c3ccc(C[C@H](NC(=O)c4ccc(C(C)(C)C)s4)C(=O)N[C@H](C)C(=O)O)cc3)nc2)cc1 [Compound 1258]
10,5.00 to 5.30,COc1cc(/C=C/c2cnc(-c3ccc(C[C@H](NC(=O)c4ccc(C(C)(C)C)s4)C(=O)N[C@H](C)C(=O)O)cc3)nc2)cc(OC)c1 [Compound 1259]
11,5.60 to 6.10,C[C@@H](NC(=O)[C@H](Cc1ccc(-c2ncc(/C=C/c3ccccc3C(F)(F)F)cn2)cc1)NC(=O)c1ccc(C(C)(C)C)s1)C(=O)O [Compound 1260]
12,5.60 to 6.10,C[C@@H](NC(=O)[C@H](Cc1ccc(-c2ncc(/C=C/c3cc(C(F)(F)F)cc(C(F)(F)F)c3)cn2)cc1)NC(=O)c1ccc(C(C)(C)C)s1)C(=O)O [Compound 1261]
13,5.60 to 6.10,CCCCc1ccc(/C=C/c2cnc(-c3ccc(C[C@H](NC(=O)c4ccc(C(C)(C)C)s4)C(=O)N[C@H](C)C(=O)O)cc3)nc2)cc1 [Compound 1262]
14,5.30 to 5.60,COc1cccc(/C=C/c2cnc(-c3ccc(C[C@H](NC(=O)c4ccc(C(C)(C)C)s4)C(=O)N[C@H](C)C(=O)O)cc3)nc2)c1 [Compound 1263]
15,5.60 to 6.10,Cc1ccc(/C=C/c2cnc(-c3ccc(C[C@H](NC(=O)c4ccc(C(C)(C)C)s4)C(=O)N[C@H](C)C(=O)O)cc3)nc2)cc1 [Compound 1264]
16,> 6.10,CCC[C@H]1CC[C@H](c2ccc(-c3cnc(-c4ccc(C[C@H](NC(=O)c5ccc(C(C)(C)C)s5)C(=O)N[C@H](C)C(=O)O)cc4)nc3)cc2)CC1 [Compound 1265]
17,5.30 to 5.60,CCc1ccc(/C(C)=C/c2cnc(-c3ccc(C[C@H](NC(=O)c4ccc(C(C)(C)C)s4)C(=O)N[C@H](C)C(=O)O)cc3)nc2)cc1 [Compound 1266]
18,5.00 to 5.30,C[C@@H](NC(=O)[C@H](Cc1ccc(-c2ncc(N3CCN(CC4CCCCC4)C3=O)cn2)cc1)NC(=O)c1ccc(C(C)(C)C)s1)C(=O)O [Compound 1267]
19,> 6.10,C[C@@H](NC(=O)[C@H](Cc1ccc(-c2ncc(N3CCN(c4ccc(C(C)(C)C)cc4)C3=O)cn2)cc1)NC(=O)c1ccc(C(C)(C)C)s1)C(=O)O [Compound 1268]
20,5.00 to 5.30,CC[C@H]1CC[C@H](c2ccc(-c3cnc(-c4ccc(C[C@@H](NC(=O)c5ccc(C(C)(C)C)s5)C(=O)N[C@H](C)C(=O)O)cc4)nc3)cc2)CC1 [Compound 1269]
21,5.60 to 6.10,CC[C@H]1CC[C@H](c2ccc(-c3cnc(-c4ccc(C[C@@H](NC(=O)c5ccc(C(C)(C)C)s5)C(=O)N[C@@H](C)C(=O)O)cc4)nc3)cc2)CC1 [Compound 1270]
22,5.60 to 6.10,CCCCCCCOc1ccc(-c2cnc(-c3ccc(C[C@@H](NC(=O)c4ccc(C(C)(C)C)s4)C(=O)N4CC(C(=O)O)C4)cc3)nc2)cc1 [Compound 1271]
23,5.00 to 5.30,C[C@@H](NC(=O)[C@H](Cc1ccc(-c2ncc(OCc3ccc(C(F)(F)F)cc3)cn2)cc1)NC(=O)c1ccc(C(C)(C)C)s1)C(=O)O [Compound 1272]
24,5.00 to 5.30,CCCCCCOC1CN(c2cnc(-c3ccc(C[C@H](NC(=O)c4ccc(C(C)(C)C)s4)C(=O)N[C@H](C)C(=O)O)cc3)nc2)C1 [Compound 1273]
25,5.30 to 5.60,CCc1ccc(CCc2cnc(-c3ccc(C[C@H](NC(=O)c4ccc(C(C)(C)C)s4)C(=O)N[C@H](C)C(=O)O)cc3)nc2)cc1 [Compound 1274]
26,5.60 to 6.10,C[C@@H](NC(=O)[C@H](Cc1ccc(-c2ncc(C#Cc3ccc(F)cc3)cn2)cc1)NC(=O)c1ccc(C(C)(C)C)s1)C(=O)O [Compound 1275]

row,pEC50,Compound
1,5.60 to 6.10,CCc1ccc(C#Cc2cnc(-c3ccc(C[C@H](NC(=O)c4ccc(C(C)(C)C)s4)C(=O)N[C@H](C)C(=O)O)cc3)nc2)cc1 [Compound 1276]
2,5.60 to 6.10,CCc1ccc(/C=C\c2cnc(-c3ccc(C[C@H](NC(=O)c4ccc(C(C)(C)C)s4)C(=O)N[C@H](C)C(=O)O)cc3)nc2)cc1 [Compound 1277]
3,> 6.10,CC[C@H]1CC[C@H](c2ccc(-c3cnc(-c4ccc(C[C@H](NC(=O)c5ccc(S(C)(=O)=O)s5)C(=O)N5CC(C(=O)O)C5)cc4)nc3)cc2)CC1 [Compound 1278]
4,5.30 to 5.60,CC[C@H]1CC[C@H](c2ccc(-c3cnc(-c4ccc(C[C@H](NC(=O)Cc5ccc(C(C)(C)C)s5)C(=O)N5CC(C(=O)O)C5)cc4)nc3)cc2)CC1 [Compound 1279]
5,> 6.10,CCCCCCCOc1ccc(-c2cnc(-c3ccc(C[C@H](NC(=O)c4ccc(C(C)(C)C)s4)C(=O)N4CC(CN)(C(=O)O)C4)cc3)nc2)cc1 [Compound 1280]
6,5.30 to 5.60,CCCCCCCOc1ccc(-c2cnc(-c3ccc(C[C@H](NC(=O)c4ccc(C(C)(C)C)s4)C(=O)N[C@H]4C[C@H](N)C4)cc3)nc2)cc1 [Compound 1281]
7,> 6.10,C[C@@H](NC(=O)[C@H](Cc1ccc(-c2ncc(-c3ccc(C4CCCCC4)cc3)cn2)cc1)NC(=O)c1ccc(C(C)(C)C)s1)C(=O)O [Compound 1282]
8,> 6.10,Cc1ccc(-c2ccc(-c3cnc(-c4ccc(C[C@H](NC(=O)c5ccc(C(C)(C)C)s5)C(=O)N[C@H](C)C(=O)O)cc4)nc3)cc2)cc1 [Compound 1283]
9,5.60 to 6.10,C[C@@H](NC(=O)[C@H](Cc1ccc(-c2ncc(-c3cccc(N4CCCCC4)c3)cn2)cc1)NC(=O)c1ccc(C(C)(C)C)s1)C(=O)O [Compound 1284]
10,> 6.10,Cc1cccc(-c2ccc(-c3cnc(-c4ccc(C[C@H](NC(=O)c5ccc(C(C)(C)C)s5)C(=O)N[C@H](C)C(=O)O)cc4)nc3)cc2)c1 [Compound 1285]
11,> 6.10,CCc1ccc(-c2ccc(-c3cnc(-c4ccc(C[C@H](NC(=O)c5ccc(C(C)(C)C)s5)C(=O)N[C@H](C)C(=O)O)cc4)nc3)cc2)cc1 [Compound 1286]
12,5.60 to 6.10,CCOc1ccc(-c2ccc(-c3cnc(-c4ccc(C[C@H](NC(=O)c5ccc(C(C)(C)C)s5)C(=O)N[C@H](C)C(=O)O)cc4)nc3)cc2)cc1 [Compound 1287]
13,5.60 to 6.10,CCCOc1ccc(-c2ccc(-c3cnc(-c4ccc(C[C@H](NC(=O)c5ccc(C(C)(C)C)s5)C(=O)N[C@H](C)C(=O)O)cc4)nc3)cc2)cc1 [Compound 1288]
14,> 6.10,C[C@@H](NC(=O)[C@H](Cc1ccc(-c2ncc(-c3ccc(-c4ccccc4)c(F)c3)cn2)cc1)NC(=O)c1ccc(C(C)(C)C)s1)C(=O)O [Compound 1289]
15,5.30 to 5.60,C[C@@H](NC(=O)[C@H](Cc1ccc(-c2ncc(-c3ccc4c(c3)C(=O)c3ccccc3-4)cn2)cc1)NC(=O)c1ccc(C(C)(C)C)s1)C(=O)O [Compound 1290]
16,5.60 to 6.10,C[C@@H](NC(=O)[C@H](Cc1ccc(-c2ncc(-c3ccc(-c4ccc(C#N)cc4)cc3)cn2)cc1)NC(=O)c1ccc(C(C)(C)C)s1)C(=O)O [Compound 1291]
17,> 6.10,CC(=O)c1ccc(-c2ccc(-c3cnc(-c4ccc(C[C@H](NC(=O)c5ccc(C(C)(C)C)s5)C(=O)N[C@H](C)C(=O)O)cc4)nc3)cc2)cc1 [Compound 1292]
18,> 6.10,C[C@@H](NC(=O)[C@H](Cc1ccc(-c2ncc(-c3ccc(-c4ccc(Br)cc4)cc3)cn2)cc1)NC(=O)c1ccc(C(C)(C)C)s1)C(=O)O [Compound 1293]
19,5.60 to 6.10,CC(C)CCOc1ccc(-c2ccc(-c3cnc(-c4ccc(C[C@H](NC(=O)c5ccc(C(C)(C)C)s5)C(=O)N[C@H](C)C(=O)O)cc4)nc3)cc2)cc1 [Compound 1294]
20,5.60 to 6.10,CC(C)Oc1ccc(-c2ccc(-c3cnc(-c4ccc(C[C@H](NC(=O)c5ccc(C(C)(C)C)s5)C(=O)N[C@H](C)C(=O)O)cc4)nc3)cc2)cc1 [Compound 1295]
21,5.30 to 5.60,CCCC(C)Oc1ccc(-c2ccc(-c3cnc(-c4ccc(C[C@H](NC(=O)c5ccc(C(C)(C)C)s5)C(=O)N[C@H](C)C(=O)O)cc4)nc3)cc2)cc1 (stereo partly shown) [Compound 1296]
22,5.30 to 5.60,C[C@@H](NC(=O)[C@H](Cc1ccc(-c2ncc(-c3ccc(-c4ccnn4C)cc3)cn2)cc1)NC(=O)c1ccc(C(C)(C)C)s1)C(=O)O [Compound 1297]
23,> 6.10,CCC(CC)Oc1ccc(-c2ccc(-c3cnc(-c4ccc(C[C@H](NC(=O)c5ccc(C(C)(C)C)s5)C(=O)N[C@H](C)C(=O)O)cc4)nc3)cc2)cc1 [Compound 1298]
24,5.60 to 6.10,C[C@@H](NC(=O)[C@H](Cc1ccc(-c2ncc(-c3ccc4c(c3)Cc3ccccc3-4)cn2)cc1)NC(=O)c1ccc(C(C)(C)C)s1)C(=O)O [Compound 1299]
25,5.60 to 6.10,C[C@@H](NC(=O)[C@H](Cc1ccc(-c2ncc(-c3ccc(N4CCCC4)cc3)cn2)cc1)NC(=O)c1ccc(C(C)(C)C)s1)C(=O)O [Compound 1300]
26,5.00 to 5.30,C[C@@H](NC(=O)[C@H](Cc1ccc(-c2ncc(-c3ccc(SC4CC4)cc3)cn2)cc1)NC(=O)c1ccc(C(C)(C)C)s1)C(=O)O [Compound 1301]
